Assay results published in ChEMBL document CHEMBL1201862, “PubChem BioAssay data set” (2004).
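1) Cells in 96-well plates. 2) Compound, 48 h, 5 concentrations. 3) Linear interpolation between surrounding doses. 4) Unreached endpoint = highest concentration. Here, GI50 denotes the concentration required for 50% inhibition of growth.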 Activity calls are given as the source filed them. No stated cut-off is given here; in the data, active = GI50 up to about 1.1 µM and inactive = higher.

Legend:
Experiment in all cases: NCI anticancer screen, dose series, 48 h
SN12C = system: SN12C
PC-3 = system: PC-3
RPMI-8226 = system: RPMI-8226
UACC-257 = system: UACC-257
NCI-H460 = system: NCI-H460
UO-31 = system: UO-31
ACHN = system: ACHN
SF-539 = system: SF-539
DLD-1 = system: DLD-1
HL-60 = system: HL-60
SF-295 = system: SF-295
HOP-62 = system: HOP-62
A549 = system: A549
HT-29 = system: HT-29
SK-MEL-28 = system: SK-MEL-28
BT-549 = system: BT-549
HCT-116 = system: HCT-116
OVCAR-4 = system: OVCAR-4
IGROV-1 = system: IGROV-1
K562 = system: K562

## COc1ccc(/C=C\c2cc(OC)c(OC)c(OC)c2)cc1OC
SN12C
  GI50: 0.216 µM (active)
PC-3
  GI50: 0.112 µM (active)
RPMI-8226
  GI50: 0.162 µM (active)
UACC-257
  GI50: 0.136 µM (active)
NCI-H460
  GI50: 0.142 µM (active)
UO-31
  GI50: 2.21 µM (inactive)
ACHN
  GI50: 0.348 µM (active)
SF-539
  GI50: 0.113 µM (active)
DLD-1
  GI50: 0.173 µM (active)
HL-60
  GI50: 0.0912 µM (active)
SF-295
  GI50: 0.108 µM (active)
HOP-62
  GI50: 0.128 µM (active)
A549
  GI50: 0.239 µM (active)
HT-29
  GI50: 0.124 µM (active)
SK-MEL-28
  GI50: 0.143 µM (active)
BT-549
  GI50: 0.912 µM (active)
HCT-116
  GI50: 0.135 µM (active)
OVCAR-4
  GI50: 15.8 µM (inactive)
IGROV-1
  GI50: 0.278 µM (active)
K562
  GI50: 0.12 µM (active)

## CCCCCCCCCC[C@@H](O)[C@@H]1CC[C@@H]([C@@H]2CC[C@@H]([C@@H](O)CCCCCCCCCC[C@H](O)CC3=CC(C)OC3=O)O2)O1 (stereo not given in full)
SN12C
  GI50: 5.62 µM (inactive)
PC-3
  GI50: 2.34 µM (inactive)
RPMI-8226
  GI50: 1.26 µM (inactive)
UACC-257
  GI50: 0.356 µM (active)
NCI-H460
  GI50: 0.895 µM (active)
UO-31
  GI50: 1.25 µM (inactive)
ACHN
  GI50: 0.0355 µM (active)
SF-539
  GI50: 4.5 µM (inactive)
DLD-1
  GI50: 3.31 µM (inactive)
HL-60
  GI50: 0.102 µM (active)
SF-295
  GI50: 1.71 µM (inactive)
HOP-62
  GI50: 2.99 µM (inactive)
A549
  GI50: 1.73 µM (inactive)
HT-29
  GI50: 2.51 µM (inactive)
SK-MEL-28
  GI50: 3.36 µM (inactive)
BT-549
  GI50: 4.23 µM (inactive)
HCT-116
  GI50: 1.91 µM (inactive)
OVCAR-4
  GI50: 6.28 µM (inactive)
IGROV-1
  GI50: 3.48 µM (inactive)
K562
  GI50: 0.0318 µM (active)
